Results from paper PMC12396409, “Screening and hit evaluation of a microbial metabolite library against the pathogenic Plasmodium falciparum and Toxoplasma gondii parasites” (International Journal for Parasitology: Drugs and Drug …, 2025).
Counter-ions that a name gives are not always drawn. Like-named read-outs stand apart in the source and are kept apart here. Where a SMILES comes first, the peptide text is derived from it. Bridges are numbered along the chain shown (N, C = ends). [ ]: non-standard residue; d: D form. The star is where a group is joined. Octatrienoyl(2E,4E,6E) = C/C=C/C=C/C=C/C(=O)*; Pro(4R-Me) = C[C@H]1CN[C@H](C(=O)O)C1; NMeA = CN[C@@H](C)C(=O)O

Experiments:
[1] = system: T. gondii RH strain (RH-Tub-eYFP) tachyzoites; experiment: microbe, parasite or virus in culture; assay type: cell-based, Toxoplasma gondii; settings: for percent parasite growth at 2 µg/mL: Toxoplasma gondii; for Mean / Replicate 1 / Replicate 2: 2 μg/mL; for Mean: mean of both replicates, growth (% of control); for Replicate 1 / Replicate 2: values are growth (% of control)
[2] = system: P. falciparum 3D7 parasites; experiment: P. falciparum growth inhibition assay, 1-cycle (72 h treatment), SYBR DNA staining (library screen at 2 μg/mL and dose-response); assay type: cell-based, Plasmodium falciparum; settings: for activity at 2 µg/mL: Plasmodium falciparum
[3] = system: P. falciparum 3D7 parasites; experiment: P. falciparum growth inhibition assay, 2-cycle (120 h treatment), delayed-death screen and dose-response; assay type: cell-based, Plasmodium falciparum; settings: for activity at 2 µg/mL: Plasmodium falciparum
[4] = library screen at 2 μg/mL, 72 h, % growth, replicate 1
[5] = library screen at 2 μg/mL, 72 h, % growth, replicate 2
[6] = library screen at 2 μg/mL, 120 h, % growth, replicate 1
[7] = library screen at 2 μg/mL, 120 h, % growth, replicate 2
[8] = 72 h, library screen at 2 μg/mL, 72 h, % growth, replicate 1, read-out: Tg_72h_%Growth_Rep1
[9] = 72 h, library screen at 2 μg/mL, 72 h, % growth, replicate 2, read-out: Tg_72h_%Growth_Rep2
[10] = active against the parasite at 2 μg/mL, no anti-tumour (NS-1) or cytotoxic (fibroblast) activity at 5 μg/mL

SMILES: CC[C@H]1C[C@@H]2CC[C@@H](O2)[C@@H](C)C(=O)O[C@H](CC)C[C@H]2CC[C@H](O2)[C@H](C)C(=O)O[C@@H](C)C[C@@H]2CC[C@@H](O2)[C@@H](C)C(=O)O[C@H](CC)C[C@H]2CC[C@H](O2)[C@H](C)C(=O)O1 [Trinactin]
- Tg_72h_%Growth_Rep1 ([1]; T. gondii, 72 h, screen at 2 μg/mL, replicate 1): 2.98%
- Tg_72h_%Growth_Rep2 ([1]; T. gondii, 72 h, screen at 2 μg/mL, replicate 2): 5.01%
- Pf_72h_%Growth_Rep1 ([2]; P. falciparum, 72 h, screen at 2 μg/mL, replicate 1): 3.59%
- Pf_72h_%Growth_Rep2 ([2]; P. falciparum, 72 h, screen at 2 μg/mL, replicate 2): -0.10%
- Pf_120h_%Growth_Rep1 ([3]; P. falciparum, 120 h, screen at 2 μg/mL, replicate 1): 16.44%
- Pf_120h_%Growth_Rep2 ([3]; P. falciparum, 120 h, screen at 2 μg/mL, replicate 2): 5.60%

SMILES: C/C=C/C=C/C=C/C(=O)N[C@@H](Cc1ccccc1)C(=O)N[C@H]1COC(=O)[C@@H]2C[C@@H](C)CN2C(=O)[C@H](C)NC(=O)[C@H](C)N(C)C(=O)[C@@H]2CCCN2C1=O [A 54556A] ({Octatrienoyl(2E,4E,6E)}-FSP[NMeA]A[Pro(4R-Me)]; ester 2-C)
- Tg_72h_%Growth_Rep1 [1, 4]: 149.51%
- Tg_72h_%Growth_Rep2 [1, 5]: 92.23%
- Pf_72h_%Growth_Rep1 [2, 4]: 73.00%
- Pf_72h_%Growth_Rep2 [2, 5]: 56.16%
- Pf_120h_%Growth_Rep1 [3, 6]: 58.56%
- Pf_120h_%Growth_Rep2 [3, 7]: 46.42%

SMILES: O=C1Cc2ccccc2N1 [BIA-O1735]
- Tg_72h_%Growth_Rep1 ([1]; T. gondii, 72 h, parasite screen at 2 μg/mL, % growth, replicate 1): 124.39%
- Tg_72h_%Growth_Rep2 ([1]; T. gondii, 72 h, parasite screen at 2 μg/mL, % growth, replicate 2): 90.71%
- Pf_72h_%Growth_Rep1 ([2]; P. falciparum 3D7, 72 h, parasite screen at 2 μg/mL, % growth, replicate 1): 82.92%
- Pf_72h_%Growth_Rep2 ([2]; P. falciparum 3D7, 72 h, parasite screen at 2 μg/mL, % growth, replicate 2): 80.95%
- Pf_120h_%Growth_Rep1 ([3]; P. falciparum 3D7, 120 h, parasite screen at 2 μg/mL, % growth, replicate 1): 73.62%
- Pf_120h_%Growth_Rep2 ([3]; P. falciparum 3D7, 120 h, parasite screen at 2 μg/mL, % growth, replicate 2): 127.66%

SMILES: CC[C@H](C)[C@H]1C(=O)O[C@H](C(C)C)C(=O)N(C)[C@@H](C(C)C)C(=O)O[C@H](C(C)C)C(=O)N(C)[C@@H](C(C)C)C(=O)O[C@H](C(C)C)C(=O)N1C [Enniatin B1]
- percent parasite growth at 2 µg/mL ([1]; library screen at 2 μg/mL, 72 h, % growth, replicate 1, read-out: Tg_72h_%Growth_Rep1): 0.26%
- percent parasite growth at 2 µg/mL ([1]; library screen at 2 μg/mL, 72 h, % growth, replicate 2, read-out: Tg_72h_%Growth_Rep2): 25.7%
- activity at 2 µg/mL ([2]; 3D7, library screen at 2 μg/mL, 72 h, % growth, replicate 1, read-out: Pf_72h_%Growth_Rep1): 4.56%
- activity at 2 µg/mL ([2]; 3D7, library screen at 2 μg/mL, 72 h, % growth, replicate 2, read-out: Pf_72h_%Growth_Rep2): 3.05%
- activity at 2 µg/mL ([3]; 3D7, library screen at 2 μg/mL, 120 h, % growth, replicate 1, read-out: Pf_120h_%Growth_Rep1): 5.98%
- activity at 2 µg/mL ([3]; 3D7, library screen at 2 μg/mL, 120 h, % growth, replicate 2, read-out: Pf_120h_%Growth_Rep2): 9.66%

SMILES: CC1(C)[C@H](C(=O)O)N2C(=O)C[C@H]2S1(=O)=O [Sulbactam sodium]
- percent parasite growth at 2 µg/mL ([1]; 72 h, T. gondii, 72 h, parasite screen 2 μg/mL, % growth, replicate 1, read-out: Tg_72h_%Growth_Rep1): 134%
- percent parasite growth at 2 µg/mL ([1]; 72 h, T. gondii, 72 h, parasite screen 2 μg/mL, % growth, replicate 2, read-out: Tg_72h_%Growth_Rep2): 84.2%
- activity at 2 µg/mL ([2]; 3D7, P. falciparum, 72 h, parasite screen 2 μg/mL, % growth, replicate 1, read-out: Pf_72h_%Growth_Rep1): 90.2%
- activity at 2 µg/mL ([2]; 3D7, P. falciparum, 72 h, parasite screen 2 μg/mL, % growth, replicate 2, read-out: Pf_72h_%Growth_Rep2): 124%
- activity at 2 µg/mL ([3]; 3D7, P. falciparum, 120 h, parasite screen 2 μg/mL, % growth, replicate 1, read-out: Pf_120h_%Growth_Rep1): 105%
- activity at 2 µg/mL ([3]; 3D7, P. falciparum, 120 h, parasite screen 2 μg/mL, % growth, replicate 2, read-out: Pf_120h_%Growth_Rep2): 104%

SMILES: CCCC[C@H]1C(=O)O[C@H](C)[C@H](NC(=O)c2cccc(NC=O)c2O)C(=O)O[C@@H](C)[C@@H]1OC(=O)CC(C)C [Antimycin A3]
- Mean ([1]; T. gondii, 72 h): 21.56
- Replicate 1 ([1]; T. gondii, 72 h): 30.27
- Replicate 2 ([1]; T. gondii, 72 h): 12.84
- percent parasite growth at 2 µg/mL [1, 8]: 30.3%
- percent parasite growth at 2 µg/mL [1, 9]: 12.8%
- activity at 2 µg/mL ([2]; 3D7, 72 h, library screen at 2 μg/mL, 72 h, % growth, replicate 1, read-out: Pf_72h_%Growth_Rep1): 47.1%
- activity at 2 µg/mL ([2]; 3D7, 72 h, library screen at 2 μg/mL, 72 h, % growth, replicate 2, read-out: Pf_72h_%Growth_Rep2): 38.8%
- activity at 2 µg/mL ([3]; 3D7, 120 h, library screen at 2 μg/mL, 120 h, % growth, replicate 1, read-out: Pf_120h_%Growth_Rep1): 45.4%
- activity at 2 µg/mL ([3]; 3D7, 120 h, library screen at 2 μg/mL, 120 h, % growth, replicate 2, read-out: Pf_120h_%Growth_Rep2): 32%

SMILES: CC(=O)O[C@@H]1C[C@]2(C)[C@@]3(CO)[C@H](O)C(=O)C(C)=C[C@H]3O[C@H]1[C@@]21CO1 [Acetyldeoxynivalenol, 3-]
- Tg_72h_%Growth_Rep1 [1, 4]: 4.23%
- Tg_72h_%Growth_Rep2 [1, 5]: 6.65%
- Pf_72h_%Growth_Rep1 [2, 4]: 11.16%
- Pf_72h_%Growth_Rep2 [2, 5]: 9.81%
- Pf_120h_%Growth_Rep1 [3, 6]: 14.50%
- Pf_120h_%Growth_Rep2 [3, 7]: 5.88%

SMILES: O=C(O)C1CSC(c2ccccc2O)=N1 (centres unmarked) [Dihydroaeruginoic acid]
- Tg_72h_%Growth_Rep1 [1, 4]: 51.46%
- Tg_72h_%Growth_Rep2 [1, 5]: 84.93%
- Pf_72h_%Growth_Rep1 [2, 4]: 74.36%
- Pf_72h_%Growth_Rep2 [2, 5]: 72.53%
- Pf_120h_%Growth_Rep1 [3, 6]: 53.55%
- Pf_120h_%Growth_Rep2 [3, 7]: 57.05%

SMILES: COc1ccc2c(c1OC)C(=O)OC2C1c2cc3c(cc2CCN1C)OCO3 (centres unmarked) [BIA-H1954]
- Tg_72h_%Growth_Rep1 ([1]; T. gondii RH, 72 h, library screen at 2 μg/mL, % growth, replicate 1): 92.88%
- Tg_72h_%Growth_Rep2 ([1]; T. gondii RH, 72 h, library screen at 2 μg/mL, % growth, replicate 2): 95.07%
- Pf_72h_%Growth_Rep1 ([2]; P. falciparum 3D7, 72 h, library screen at 2 μg/mL, % growth, replicate 1): 81.78%
- Pf_72h_%Growth_Rep2 ([2]; P. falciparum 3D7, 72 h, library screen at 2 μg/mL, % growth, replicate 2): 87.48%
- Pf_120h_%Growth_Rep1 ([3]; P. falciparum 3D7, 120 h, library screen at 2 μg/mL, % growth, replicate 1): 145.49%
- Pf_120h_%Growth_Rep2 ([3]; P. falciparum 3D7, 120 h, library screen at 2 μg/mL, % growth, replicate 2): 80.33%

SMILES: CCC[C@@H]1C[C@@H](C(=O)N[C@@H]([C@H]2O[C@H](SC)[C@H](O)[C@@H](O)[C@H]2O)[C@H](C)Cl)N(C)C1 [Clindamycin hydrochloride, reference compound]
- percent parasite growth at 2 µg/mL ([1]; 72 h, read-out: Tg_72h_%Growth_Rep1): 21.7%
- percent parasite growth at 2 µg/mL ([1]; 72 h, read-out: Tg_72h_%Growth_Rep2): 28.6%

SMILES: COC(=O)c1ccc(CCCCCCCCCCc2ccc(C(=O)OC)nc2)cn1 [Penicolinate A]
- Mean ([1]; T. gondii, 72 h): 44.53
- Replicate 1 ([1]; T. gondii, 72 h): 16.04
- Replicate 2 ([1]; T. gondii, 72 h): 73.01

SMILES: CC(C)=CCC[C@H](C)[C@H]1CC[C@]2(C)C[C@H]3[C@H](C(=O)C[C@@]3(C)O)/C(C=O)=C\C[C@@H]12 [Ophiobolin C]
- Mean ([1]; T. gondii, 72 h): 48.72
- Replicate 1 ([1]; T. gondii, 72 h): 7.63
- Replicate 2 ([1]; T. gondii, 72 h): 89.80

SMILES: CC(=O)O[C@@H]1[C@@H]2O[C@H]2[C@@](C)(O)C(=O)[C@@H](C)C/C=C/[C@H]2[C@H](O)C(C)=C(C)[C@H]3[C@H](Cc4ccccc4)NC(=O)[C@@]123 [19,20-epoxycytochalasin C]
- selectivity for T. gondii in the screens [1, 10]: active selectively against P. falciparum and T. gondii
- selectivity for P. falciparum in the screens [2, 10]: active selectively against P. falciparum and T. gondii

SMILES: O=C(O)c1cccc(C(=O)O)n1 [Dipicolinic acid]
- percent parasite growth at 2 µg/mL [1, 8]: 112%
- percent parasite growth at 2 µg/mL [1, 9]: 89.5%

SMILES: C=C[C@]1(C)C[C@@H](O)[C@]2(C)[C@H](C)CC[C@]3(CCC(=O)[C@H]32)[C@@H](C)[C@@H]1O [Mutilin]
- Screen (T. gondii) ([1]; library screen at 2 μg/mL, RH strain, 72 h): I, I
- Screen (P. falciparum) ([2]; library screen at 2 μg/mL, 3D7, 72 h, DD from the 120 h timepoint): I, I

SMILES: CN[C@@H]1C[C@H]2O[C@@](C)([C@@H]1OC)n1c3ccccc3c3c4c(c5c6ccccc6n2c5c31)C(=O)NC4=O [Oxostaurosporine, 7-]
- Mean ([1]; T. gondii, 72 h): 37.90
- Replicate 1 ([1]; T. gondii, 72 h): 57.26
- Replicate 2 ([1]; T. gondii, 72 h): 18.54

SMILES: CN1CC[C@]2(c3cccc4c3N[C@H]3N(C)CC[C@@]43[C@]34CCN(C)[C@H]3Nc3ccccc34)c3ccccc3N[C@H]12 [Hodgkinsine B]
- Mean ([1]; T. gondii, 72 h): 34.28
- Replicate 1 ([1]; T. gondii, 72 h): 8.86
- Replicate 2 ([1]; T. gondii, 72 h): 59.70
